# Test results reported in US9428519B2, “Acylated derivative of homoharringtonine, preparation method therefor, and application thereof” (HANGZHOU BENSHENG PHARMACEUTICAL CO., LTD., priority 2011, dated 2016).
# Assays:
# [1] = tested on: H9 (acute lymphoblastic leukemia, ALL); experiment: MTT growth inhibition of leukemia cells, 72 h; format: cell-based, human
# From the text: (§1) Leukemia cell lines: leukemia cell lines: K562/adr (drug-resistant, chronic myeloid leukemia, CML), NB4 (acute promyelocytic leukemia, AML), Kasumi-1 (acute myeloid leukemia M2 type, AML-M2), Jurkat (acute lymphoblastic leukemia, ALL), all of which are donated by Cancer Research Institute of Zhejiang University, China; and H9 (acute lymphoblastic leukemia, ALL), which is purchased from China Center for Type Culture Collection (CCTCC).
# (§2) Reagents: The standard sample of homoharringtonine (HHT) is purchased from Taihua Natural Plant Pharmaceutical Co., Ltd., Shaanxi, China, the homoharringtonine derivatives of the present invention.
# (§3) Obtaining 6000 well-growing leukemia cells and inoculating them into wells of a 96-well cell culture plate. The culture medium is the 1640 cell culture medium containing 10% fetal bovine serum. After adding the homoharringtonine derivatives of different concentrations and mixing uniformly, placing the plate in a carbon dioxide cell incubator (5% CO2) at 37° C. and incubated for 72 hours. Then the viable cell concentration is determined by the MTT method. In this experiment, the cell viability in control group (not treated with any compound) is set as 100%. On such basis, the cell viability (%) after treatment and the 50% inhibiting concentration of the compound for the leukemia cell growth at 72 hours (IC50 value of 72 hours) are calculated.
# [2] = tested on: Jurkat (acute lymphoblastic leukemia, ALL); experiment: MTT growth inhibition of leukemia cells, 72 h; format: cell-based, human
# From the text: as §1, §2, §3
# [3] = tested on: K562/adr (drug-resistant, chronic myeloid leukemia, CML); experiment: MTT growth inhibition of leukemia cells, 72 h; format: cell-based, human
# From the text: as §1, §2, §3
# [4] = tested on: Kasumi-1 (acute myeloid leukemia M2 type, AML-M2); experiment: MTT growth inhibition of leukemia cells, 72 h; format: cell-based, human
# From the text: as §1, §2, §3
# [5] = tested on: NB4 (acute promyelocytic leukemia, AML); experiment: MTT growth inhibition of leukemia cells, 72 h; format: cell-based, human
# From the text: as §1, §2, §3
# [6] = tested on: RPMI8226 (multiple myeloma); experiment: MTT growth inhibition of multiple myeloma cells, 72 h; format: cell-based, human
# Protocol: Multiple myeloma and lymphoma cell lines: RPMI8226 (multiple myeloma), purchased from Fuxiang Bio-tech Co. Ltd., Shanghai, China.
# as §3
# A549 (human lung cancer) = experiment: MTT growth inhibition of human solid tumor cells, 72 h; format: cell-based
# Protocol: (§4) Human solid tumor cell lines: Hep-2 (laryngeal carcinoma), A549 (human lung cancer), CaES-17 (esophageal cancer cell), PC-3 (prostate cancer), CNE (nasopharyngeal carcinoma cell), and SK-OV-3 (ovarian cancer cell), all of which are purchased from China Center For Type Culture Collection; RKO (human colon adenocarcinoma cell), MGC 803 (human gastric cancer cell), MG63 (osteosarcoma) and U87 MG (malignant glioma cell), all of which are purchased from Fuxiang Bio-tech Co. Ltd., Shanghai, China; PANC-1 (pancreatic cancer), Huh7 (human liver cancer cell), Becap37 (human breast cancer cell), and Hela (human cervical cancer cell), all of which are donated by Cancer Research Institute of Zhejiang University, China.
# (§5) Obtaining 4000 well-growing human solid tumor cells and inoculating them into wells of a 96-well cell culture plate. The culture medium is DMEM High Glucose cell culture medium containing 10% fetal bovine serum. The plate is placed in a carbon dioxide cell incubator (5% CO2) at 37° C. and incubated for 24 hours. After adding the homoharringtonine derivatives of different concentration and mixing uniformly, the plate is placed in a carbon dioxide cell incubator (5% CO2) at 37° C. and incubated for 72 hours. Then the viable cell concentration is determined by the MTT method and the cell viability (%) after drug treatment is calculated. In this experiment, the cell viability of control group (not treated with any compound) is set as 100%.
# [7] = tested on: Becap37 (human breast cancer cell); experiment: as above; format: cell-based
# Protocol: as §4, §5
# [8] = tested on: CNE (nasopharyngeal carcinoma cell); experiment: as above; format: cell-based
# Protocol: as §4, §5
# [9] = tested on: CaES-17 (esophageal cancer cell); experiment: as above; format: cell-based
# Protocol: as §4, §5
# [10] = tested on: Hela (human cervical cancer cell); experiment: as above; format: cell-based
# Protocol: as §4, §5
# [11] = tested on: Hep-2 (laryngeal carcinoma); experiment: as above; format: cell-based
# Protocol: as §4, §5
# [12] = tested on: Huh7 (human liver cancer cell); experiment: as above; format: cell-based
# Protocol: as §4, §5
# MG63 (osteosarcoma) = experiment: as above; format: cell-based
# Protocol: as §4, §5
# [13] = tested on: MGC 803 (human gastric cancer cell); experiment: as above; format: cell-based
# Protocol: as §4, §5
# [14] = tested on: PANC-1 (pancreatic cancer); experiment: as above; format: cell-based
# Protocol: as §4, §5
# PC-3 (prostate cancer) = experiment: as above; format: cell-based
# Protocol: as §4, §5
# [15] = tested on: RKO (human colon adenocarcinoma cell); experiment: as above; format: cell-based; settings: MTT
# Protocol: as §4, §5
# [16] = tested on: SK-OV-3 (ovarian cancer cell); experiment: as above; format: cell-based
# Protocol: as §4, §5
# [17] = tested on: U87 MG (malignant glioma cell); experiment: as above; format: cell-based
# Protocol: as §4, §5
compound,measurement,setting,value
COC(=O)C[C@](O)(CCCC(C)(C)OC(=O)Cc1ccccc1)C(=O)O[C@@H]1C(OC)=C[C@]23CCCN2CCc2cc4c(cc2[C@H]13)OCO4 [BS-HH-074],IC50,"[1]; Homo sapiens, MTT",0.004 µg/mL
same,IC90,"[1]; Homo sapiens, MTT",0.01 µg/mL
same,improvement of anti-H9 activity compared with homoharringtonine,[1]; vs HHT,more than 2 fold
same,IC50,"[2]; Homo sapiens, Jurkat",0.0038 µg/mL
same,IC90,"[2]; Homo sapiens, Jurkat",≥ 16 µg/mL
same,IC50,"[3]; Homo sapiens, K562/Adr, MTT",0.007 µg/mL
same,IC90,"[3]; Homo sapiens, K562/Adr, MTT",14.1 µg/mL
same,improvement of anti-K562/adr activity compared with homoharringtonine,[3]; vs HHT,more than 5 fold
same,IC50,"[4]; Homo sapiens, Kasumi 1, MTT",0.001 µg/mL
same,IC90,"[4]; Homo sapiens, Kasumi 1, MTT",0.005 µg/mL
same,improvement of anti-Kasumi-1 activity compared with homoharringtonine,[4]; vs HHT,more than 5 fold
same,IC50,"[5]; Homo sapiens, MTT",0.003 µg/mL
same,IC90,"[5]; Homo sapiens, MTT",0.007 µg/mL
same,improvement of anti-NB4 activity compared with homoharringtonine,[5]; vs HHT,more than 2 fold
same,IC50,"[6]; Homo sapiens, RPMI-8226, MTT",0.003 µg/mL
same,IC90,"[6]; Homo sapiens, RPMI-8226, MTT",0.015 µg/mL
same,IC50,"A549 (human lung cancer); Homo sapiens, A549",0.007 µg/mL
same,IC90,"A549 (human lung cancer); Homo sapiens, A549",> 16 µg/mL
same,IC50,[7]; Homo sapiens,0.003 µg/mL
same,IC90,[7]; Homo sapiens,8.38 µg/mL
same,IC50,"[8]; Homo sapiens, MTT",0.0014 µg/mL
same,IC90,"[8]; Homo sapiens, MTT",> 16 µg/mL
same,anti-CNE effect relative to homoharringtonine,[8]; vs HHT,> 27 fold
same,IC50,"[9]; Homo sapiens, CaEs17",0.015 µg/mL
same,IC90,"[9]; Homo sapiens, CaEs17",16 µg/mL
same,IC50,"[10]; Homo sapiens, HeLa, MTT",0.0034 µg/mL
same,IC90,"[10]; Homo sapiens, HeLa, MTT",12.6 µg/mL
same,anti-Hela effect relative to homoharringtonine,[10]; vs HHT,> 5.6 fold
same,IC50,"[11]; Homo sapiens, HEp-2",0.006 µg/mL
same,IC90,"[11]; Homo sapiens, HEp-2",> 16 µg/mL
same,IC50,"[12]; Homo sapiens, Huh-7",0.003 µg/mL
same,IC90,"[12]; Homo sapiens, Huh-7",0.05 µg/mL
same,IC50,"MG63 (osteosarcoma); Homo sapiens, MG-63, MTT",0.006 µg/mL
same,IC90,"MG63 (osteosarcoma); Homo sapiens, MG-63, MTT",1.18 µg/mL
same,anti-MG63 effect relative to homoharringtonine,MG63 (osteosarcoma); vs HHT,substantially superior
same,IC50,"[13]; Homo sapiens, MGC-803",0.006 µg/mL
same,IC90,"[13]; Homo sapiens, MGC-803",0.055 µg/mL
same,IC50,"[14]; Homo sapiens, PANC-1, MTT",0.014 µg/mL
same,IC90,"[14]; Homo sapiens, PANC-1, MTT",> 16 µg/mL
same,IC50,"PC-3 (prostate cancer); Homo sapiens, MTT",0.0077 µg/mL
same,IC90,"PC-3 (prostate cancer); Homo sapiens, MTT",> 16 µg/mL
same,anti-PC-3 effect relative to homoharringtonine,PC-3 (prostate cancer); vs HHT,more than 10 fold
same,IC50,[15]; Homo sapiens,0.002 µg/mL
same,IC90,[15]; Homo sapiens,0.006 µg/mL
same,IC50,"[16]; Homo sapiens, SK-OV-3, MTT",0.027 µg/mL
same,IC90,"[16]; Homo sapiens, SK-OV-3, MTT",> 16 µg/mL
same,IC50,"[17]; Homo sapiens, U-87 MG",0.012 µg/mL
same,IC90,"[17]; Homo sapiens, U-87 MG",0.08 µg/mL
COC(=O)C[C@](O)(CCCC(C)(C)OC(=O)C1CCCCC1)C(=O)O[C@@H]1C(OC)=C[C@]23CCCN2CCc2cc4c(cc2[C@H]13)OCO4 [BS-HH-076],IC50 H9,[1]; MTT,0.01 µg/mL
same,IC90 H9,[1]; MTT,0.04 µg/mL
same,IC50 Jurkat,[2],0.006 µg/mL
same,IC90 Jurkat,[2],6.24 µg/mL
same,IC50 K562/adr,[3]; MTT,0.02 µg/mL
same,IC90 K562/adr,[3]; MTT,0.21 µg/mL
same,IC50 Kasumi-1,[4]; MTT,0.006 µg/mL
same,IC90 Kasumi-1,[4]; MTT,0.023 µg/mL
same,IC50 NB4,[5]; MTT,0.009 µg/mL
same,IC90 NB4,[5]; MTT,0.022 µg/mL
same,IC50 RPMI8226,[6]; MTT,0.007 µg/mL
same,IC90 RPMI8226,[6]; MTT,0.034 µg/mL
same,IC50 A549,A549 (human lung cancer),0.03 µg/mL
same,IC90 A549,A549 (human lung cancer),>16 µg/mL
same,IC50 Becap37,[7],0.01 µg/mL
same,IC90 Becap37,[7],6.4 µg/mL
same,IC50 CNE,[8]; MTT,0.029 µg/mL
same,IC90 CNE,[8]; MTT,>16 µg/mL
same,IC50 CaES-17,[9],0.039 µg/mL
same,IC90 CaES-17,[9],16 µg/mL
same,IC50 Hela,[10]; MTT,0.011 µg/mL
same,IC90 Hela,[10]; MTT,10.25 µg/mL
same,IC50 Hep-2,[11],0.012 µg/mL
same,IC90 Hep-2,[11],>16 µg/mL
same,IC50 Huh7,[12],0.008 µg/mL
same,IC90 Huh7,[12],0.096 µg/mL
same,IC50 MG 63,MG63 (osteosarcoma); MTT,0.022 µg/mL
same,IC90 MG 63,MG63 (osteosarcoma); MTT,1.72 µg/mL
same,IC50 MGC 803,[13],0.025 µg/mL
same,IC90 MGC 803,[13],0.098 µg/mL
same,IC50 PANC-1,[14]; MTT,0.042 µg/mL
same,IC90 PANC-1,[14]; MTT,>16 µg/mL
same,IC50 PC-3,PC-3 (prostate cancer); MTT,0.03 µg/mL
same,IC90 PC-3,PC-3 (prostate cancer); MTT,>16 µg/mL
same,IC50 RKO,[15],0.008 µg/mL
same,IC90 RKO,[15],0.02 µg/mL
same,IC50 SK-OV-3,[16]; MTT,0.031 µg/mL
same,IC90 SK-OV-3,[16]; MTT,>16 µg/mL
same,IC50 U87 MG,[17],0.009 µg/mL
same,IC90 U87 MG,[17],0.067 µg/mL
